In patent US4656190A, “Indene derivatives and their use as PAF-antagonists” (Merck & Co., Inc., priority 1983, dated 1987):
Values joined by “and” are separate entries in the source; they are usually repeats but may differ in a detail not shown here. Equal values may be shown once. Read-outs that look alike come from different tables or passages of the source.

Columns and labels:
[1] = target: T1, PAF specific receptor binding site on rabbit platelet plasma membranes (Oryctolagus cuniculus, UniProt G1TEI7); test: Inhibition of 3H-PAF binding to rabbit platelet plasma membranes
T1 construct: from tissue; host or cells: rabbit platelets (plasma membrane suspension)
T1 sequence (G1TEI7 1-342): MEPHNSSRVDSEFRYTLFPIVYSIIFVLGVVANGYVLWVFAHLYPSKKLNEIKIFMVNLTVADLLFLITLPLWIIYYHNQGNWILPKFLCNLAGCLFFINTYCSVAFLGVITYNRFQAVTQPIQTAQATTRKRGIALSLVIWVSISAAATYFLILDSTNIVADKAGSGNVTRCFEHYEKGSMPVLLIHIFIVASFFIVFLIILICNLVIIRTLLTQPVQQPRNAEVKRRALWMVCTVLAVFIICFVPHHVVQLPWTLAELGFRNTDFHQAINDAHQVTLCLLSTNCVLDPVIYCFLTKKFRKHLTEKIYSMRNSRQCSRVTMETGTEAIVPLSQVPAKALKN
Method: In vitro, they inhibit PAF-induced functions in both the cellular and tissue levels by disturbing the PAF binding to its specific receptor site. The ability of a compound of formula (I) to inhibit the PAF binding to its specific receptor binding site on rabbit platelet plasma membranes was measured by an assay recently developed by us.
The inhibition of H^3 -PAF binding to the rabbit platelet plasma membrane by a PAF-antagonist of Formula (I) was determined by a method employing isotropic labeling and filtration techniques. Generally, a series of Tris-buffered solutions of the selected antagonist at predetermined concentrations were prepared. Each of these solutions contains 1 pmole of ^3 H-PAF, a known amount of the test antagonist, and a sufficient amount of the pH 7.5 Tris-buffer solution (10 mM Tris, 0.25% bovine serum albumin, and 150 mM NaCl per ml water) to make the final volume of 1 ml. After adding into a set of test tubes each with 100 μg of the platelet plasma membrane suspension (S. B. Hwang, et al., Biochemistry, 22, 4756 (1983)) and one of the Tris-buffer solutions described above, the resulting mixture in each test tube was incubated at 0° C. for about one hour or until the reaction was complete. Two control samples, one of which (C1) contains all the ingredients described above except the antagonist and the other (C2) contains C1 plus a 1000-fold excess of unlabeled PAF, were also prepared and incubated simultaneously with the test samples. After the incubation was completed, the contents of each test tube were filtered under vacuo through a Whatman GF/C fiberglass filter and the residue washed rapidly several times with a total of 20 ml cold (0°-5° C.) Tris-buffer solution. Each washed residue was then suspended in 10 ml scintillation solution (Aquasol 2, New England Nuclear, Connecticut) and the radioactivity was counted in a Packard Tri-Carb 460CD Liquid Scintillation System. Defining the counts from a test sample as "Total binding with antagonist"; the counts from the control sample C1, as "Total binding C1 "; and the counts from the control sample C2 as "non-specific binding C2 ", the percent inhibition of each test antagonist can be determined by the following equation: [formula]

[2] = test system: PAF-induced cutaneous vascular permeability; test: In vivo assay: inhibition of PAF-induced increase of cutaneous vasopermeability in guinea pigs after oral dosing; details: guinea pig
Method: The specific PAF-antagonistic activities are further established by in vivo assays following the protocol (modified procedure of Humphrey et al., Lab. Investigation, 46, 422 (1982)) described below:
Protocol for the Evaluation of the Oral Activity of
PAF Antagonists or the Inhibition of PAF-Induced
Increase of Vasopermeability by PAF-Antagonists
I. Animal species: 5 guinea pigs (400-500 g)
(4.) Ground and suspend a PAF antagonist of formula
(I) with intensive sonication in 3 ml of 0.5%
aqueous methylcellulose solution.
(5.) Administer orally to each of the animals T1,
T2, T3 and T4 an appropriate amount (in
terms of mg/kg of bodyweight) of the antagonist
solution from 4), except the control animal
(6.) Forty minutes after the oral administration,
(7.) After 20 minutes or when the anesthetics became
effective, inject intracardially to each animal
and inject intracutaneously, in duplicate 0.1
ml of a PAF solution in Tris-buffer or 0.1 ml
of the Tris-buffer itself (control) according
(9.) Wait for 30 minutes or until the blue color
(13.) In the meantime, extract a 100 μl sample of
(15.) Measure the absorbance of each supernatant from
Palo Alto, CA). Calculate the amount of Evans
blue in each skin sample in terms of the volume
(μl) of the exuded blood plasma according to
the following equation: […]
(16.) Draw a plasma exudation curve
(17.) Calculate the percent inhibition of PAF-induced
cutaneous vascular permeability from measuring
the area under the plasma exudation curve of
the control animal (AC) and that of an
animal treated orally with an antagonist
(AD), for example T1, according to the […]

[3] = Table 1, E (trans), read-out: % Inhibition of PAF Binding
[4] = Table 1, E (trans), dose 5 μM, read-out: % Inhibition of PAF Binding
[5] = Table II, Z (cis), dose 5 μM, read-out: % Inhibition of PAF Receptor
[6] = Table II, Z (cis), read-out: % Inhibition of PAF Receptor

COc1ccc2c(c1)C(CC[S+](C)[O-])=C(C)/C2=C\c1ccc(S(N)(=O)=O)cc1 (stereo not drawn) [E CH2CH2SOCH3 / SO2NH2 / OCH3, E 1-(4-aminosulfonylphenyl)methylene-5-methoxy-2-methyl-1H-3-indenyl-(2-methylsulfinyl)ethane]
inhibition at 0.5 µM [1, 3]: 24% | inhibition at 5 µM [1, 4]: 74%

COC(=O)CC1=C(C)/C(=C\c2ccc(OC)c(OC)c2)c2ccc(OC)cc21 [E CH2COOCH3 / 3,4-dimethoxy / OCH3, E methyl 1-(3,4-dimethoxyphenyl)methylene-5-methoxy-2-methyl-1H-3-indenylacetate]
inhibition at 1 µM [1, 3]: 45% | inhibition at 10 µM [1, 3]: 87%

COC(=O)CC1=C(C)/C(=C\c2ccc([S+](C)[O-])cc2)c2ccc(F)cc21 (stereo not drawn) [E CH2COOCH3 / SOCH3 / F]
inhibition at 5 µM [1, 4]: 45%

CSc1ccc(/C=C2/C(C)=C(CCNC(C)=O)c3cc(F)ccc32)cc1 [Z CH2CH2NHCOCH3 / SCH3 / F]
inhibition at 5 µM [1, 5]: 50%

CCOc1ccc2c(c1)C(CC(=O)O)=C(C)/C2=C/c1ccc([S+](C)[O-])cc1 (stereo not drawn) [Z CH2COOH / SOCH3 / OC2H5]
inhibition at 5 µM [1, 5]: 42%

COc1ccc2c(c1)C(CCSc1ccccc1)=C(C)/C2=C\c1ccc(S(N)(=O)=O)cc1 [E CH2CH2SC6H5 / SO2NH2 / OCH3, E 1-(4-aminosulfonylphenyl)methylene-5-methoxy-2-methyl-1H-3-indenyl-(2-phenylthio)ethane]
inhibition at 5 µM [1, 4]: 56%

COC(=O)CC1=C(C)/C(=C/c2ccc(NS(C)(=O)=O)cc2)c2ccc(OC)cc21 [Z CH2COOCH3 / NHSO2CH3 / OCH3, Z methyl 1-(4-(N-mesylaminophenyl))methylene-5-methoxy-2-methyl-1H-3-indenylacetate]
inhibition at 3 µM ([1]; Table II, Z (cis)): 35% | inhibition at 10 µM [1, 6]: 72%

COC(=O)CC1=C(C)/C(=C/c2ccc(S(N)(=O)=O)cc2)c2ccc(OC)cc21 [Z CH2COOCH3 / SO2NH2 / OCH3, Z methyl 1-(4-aminosulfonylphenyl)methylene-5-methoxy-2-methyl-1H-3-indenylacetate]
inhibition at 1 µM [1, 6]: 39% | inhibition at 3 µM ([1]; Table II, Z (cis)): 58% | inhibition at 5 µM [1, 5]: 66% | inhibition at 10 µM [1, 6]: 75% | inhibition at 20 µM ([1]; Table II, Z (cis)): 100% | inhibition at 50 µM ([1]; Table II, Z (cis)): 100%

COc1ccc2c(c1)C(CC(=O)O)=C(C)/C2=C/c1ccc(S(N)(=O)=O)cc1 [Z CH2COOH / SO2NH2 / OCH3, 1-(4-aminosulfonylphenyl)methylene-5-methoxy-2-methyl-1H-3-indenylacetic acid]
inhibition at 5 µM [1, 5]: 32% | inhibition at 20 µM ([1]; Table II, Z (cis)): 57% | inhibition at 50 µM ([1]; Table II, Z (cis)): 94%

COc1ccc2c(c1)C(CC(=O)O)=C(C)/C2=C\c1ccc(S(N)(=O)=O)cc1 [E CH2COOH / SO2NH2 / OCH3, 1-(4-aminosulfonylphenyl)methylene-5-methoxy-2-methyl-1H-3-indenyl acetic acid]
inhibition at 5 µM [1, 4]: 4%

COCCC1=C(C)/C(=C/c2ccc(S(N)(=O)=O)cc2)c2ccc(F)cc21 [Z CH2CH2OCH3 / SO2NH2 / F, Z 1-(4-aminosulfonylphenyl)methylene-5-fluoro-2-methyl-1H-3-indenyl-(2-methoxy)ethane]
inhibition at 5 µM ([1]; read-out: % Inhibition of PAF Receptor): 29%

COCCC1=C(C)/C(=C\c2ccc(S(N)(=O)=O)cc2)c2ccc(F)cc21 [E CH2CH2OCH3 / SO2NH2 / F, E 1-(4-aminosulfonylphenyl)methylene-5-fluoro-2-methyl-1H-3-indenyl-(2-methoxy)ethane]
inhibition at 5 µM ([1]; read-out: % Inhibition of PAF Binding): 61%

COc1ccc2c(c1)C(CCn1ccnc1)=C(C)/C2=C\c1ccc(S(N)(=O)=O)cc1 [E drawing 16 / SO2NH2 / OCH3]
inhibition at 0.1 µM ([1]; Table 1, E (trans), dose 0.1 μM, read-out: % Inhibition of PAF Binding): 17% | inhibition at 0.5 µM [1, 3]: 31% | inhibition at 1 µM [1, 3]: 45% | inhibition at 5 µM [1, 4]: 90%

COC(=O)CC1=C(C)/C(=C/c2ccc(S(=O)(=O)NC(=N)N)cc2)c2ccc(OC)cc21 [Z CH2COOCH3 / SONHC(NH)NH2 / OCH3]
inhibition at 1 µM [1, 6]: 50%

COC(=O)CC1=C(C)/C(=C\c2ccc(S(N)(=O)=O)cc2)c2ccc(F)cc21 [E CH2COOCH3 / SO2NH2 / F, E-Methyl 1-(4-aminosulfonylphenyl)methylene-5-fluoro-2-methyl-1H-3-indenylacetate]
inhibition at 1 µM [1, 3]: 60%

CNS(=O)(=O)c1ccc(/C=C2\C(C)=C(CC(=O)OC)c3cc(OC)ccc32)cc1 [E CH2COOCH3 / SO2NHCH3 / OCH3, E Methyl 1-(4-(N-methylaminosulfonyl)phenyl)methylene-5-methoxy-2-methyl-1H-3-indenylacetate]
inhibition at 0.5 µM [1, 3]: 67% | inhibition at 5 µM [1, 4]: 100%

COc1ccc2c(c1)C(CCSc1ccccc1)=C(C)/C2=C/c1ccc(S(N)(=O)=O)cc1 [Z CH2CH2SC6H5 / SO2NH2 / OCH3, Z 1-(4-aminosulfonylphenyl)methylene-5-methoxy-2-methyl-1H-3-indenyl-(2-phenylthio)ethane]
inhibition at 5 µM [1, 5]: 33%

CC(=O)NCCC1=C(C)/C(=C/c2ccc([S+](C)[O-])cc2)c2ccc(F)cc21 (stereo not drawn) [Z CH2CH2NHCOCH3 / SOCH3 / F, Z 1-(4-methylsulfinylphenyl)methylene-5-fluoro-2-methyl-1H-3-indenyl-(2-acetamido)ethane]
inhibition at 5 µM [1, 5]: 39%

COc1ccc2c(c1)C(CC[S+](C)[O-])=C(C)/C2=C/c1ccc(S(N)(=O)=O)cc1 (stereo not drawn) [Z CH2CH2SOCH3 / SO2NH2 / OCH3, Z 1-(4-aminosulfonylphenyl)methylene-5-methoxy-2-methyl-1H-3-indenyl-(2-methylsulfinyl)ethane]
inhibition at 5 µM [1, 5]: 56%

CNS(=O)(=O)c1ccc(/C=C2\C(C)=C(CC(=O)OC)c3cc(F)ccc32)cc1 [E CH2COOCH3 / SO2NHCH3 / F, E Methyl 1-[4-(N-methylaminosulfonyl)phenyl]-methylene-5-fluoro-2-methyl-1H-3-indenylacetate]
inhibition at 1 µM [1, 3]: 56%

COc1ccc2c(c1)C(CCn1ccnc1)=C(C)/C2=C\c1ccc(S(N)(=O)=O)cc1 [E drawing 22 / SO2NH2 / OCH3]
% In Vivo Inhibition of PAF Receptor ([2]; 45 mg/kg): 52% | % In Vivo Inhibition of PAF Receptor ([2]; 50 mg/kg): 59%

CC(=O)NCCC1=C(C)/C(=C/c2ccc(S(C)(=O)=O)cc2)c2ccc(F)cc21 [Z CH2CH2NHCOCH3 / SO2CH3 / F, Z 1-(4-methylsulfonylphenyl)methylene-5-fluoro-2-methyl-1H-3-indenyl-(2-acetamido)ethane]
% Inhibition of PAF Receptor ([1]; Table II, Z (cis), dose 5 μM): 68% and 90%

COc1ccc2c(c1)C(CCO)=C(C)/C2=C\c1ccc(S(N)(=O)=O)cc1 [E CH2CH2OH / SO2NH2 / OCH3, E 1-(4-aminosulfonyl)methylene-5-methoxy-2-methyl-1H-3-indenyl-(2-hydroxy)ethane]
inhibition at 1 µM [1, 3]: 59%

COc1ccc2c(c1)C(CCn1ccnc1)=C(C)/C2=C/c1ccc(S(N)(=O)=O)cc1 [Z drawing 18 / SO2NH2 / OCH3, Z 1-(4-aminosulfonylphenyl)methylene-5-methoxy-2-methyl-1H-3-indenyl-[2-(N-imidazolyl)]ethane]
inhibition at 5 µM [1, 5]: 68%
